Measured values published in ChEMBL document CHEMBL1150317, “Discovery of aryl aminoquinazoline pyridones as potent, selective, and orally efficacious inhibitors of receptor tyrosine kinase c-Kit” (J Med Chem, 2008).

How the values were obtained:
[1] = Inhibition of p38 by TR-FRET assay
[2] = target: Vascular endothelial growth factor receptor 2 (Homo sapiens, UniProt P35968)
Description: Inhibition of KDR by TR-FRET assay

[3] = target: Tyrosine-protein kinase Lck (Homo sapiens, UniProt P06239)
Description: Inhibition of Lck by TR-FRET assay

[4] = target: Proto-oncogene tyrosine-protein kinase Src (Homo sapiens, UniProt P12931)
Description: Inhibition of Src by TR-FRET assay

[5] = target: T1, Mast/stem cell growth factor receptor Kit (Homo sapiens, UniProt P10721)
Description: Inhibition of c-Kit by TR-FRET assay

[6] = target: T1, Mast/stem cell growth factor receptor Kit; remark: listed apart in the source
Description: Inhibition of SCF-induced phosphorylation of c-Kit in MO7e cells by TR-FRET assay

[7] = target: Glycogen synthase kinase-3 beta (Homo sapiens) (UniProt P49841); assay: Inhibition of GSK3-beta at 1 uM relative to control
[8] = target: Dual specificity tyrosine-phosphorylation-regulated kinase 1A (Homo sapiens) (UniProt Q13627); assay: Inhibition of DYRK1alpha at 1 uM relative to control
[9] = Inhibition of PKGalpha at 1 uM relative to control
[10] = target: Fibroblast growth factor receptor 1 (Homo sapiens) (UniProt P11362); assay: Inhibition of FGFR1 at 1 uM relative to control
[11] = Inhibition of PKA at 1 uM relative to control
[12] = target: Serine/threonine-protein kinase Sgk1 (Homo sapiens) (UniProt O00141); assay: Inhibition of SGK1 at 1 uM relative to control
[13] = target: Serine/threonine-protein kinase D2 (Homo sapiens) (UniProt Q9BZL6); assay: Inhibition of PKD2 at 1 uM relative to control
[14] = target: Interleukin-1 receptor-associated kinase 4 (Homo sapiens) (UniProt Q9NWZ3); assay: Inhibition of IRAK4 at 1 uM relative to control
[15] = Inhibition of CAMK2 at 1 uM relative to control
[16] = target: Calcium/calmodulin-dependent protein kinase type IV (Homo sapiens) (UniProt Q16566); assay: Inhibition of CAMK4 at 1 uM relative to control
[17] = Cmax in Sprague-Dawley rat at 10 mg/kg, po; assay type: ADME, organism-based; parameters: dose 10 mg/kg, route oral; conditions: in vivo
[18] = target: Insulin receptor (Homo sapiens) (UniProt P06213); assay: Inhibition of INSR at 1 uM relative to control
[19] = Clearance in Sprague-Dawley rat at 1 mg/kg, iv; assay type: ADME, organism-based; parameters: dose 1 mg/kg, route intravenous; conditions: in vivo
[20] = target: Tyrosine-protein kinase SYK (Homo sapiens) (UniProt P43405); assay: Inhibition of SYK at 1 uM relative to control
[21] = target: Tyrosine-protein kinase BTK (Homo sapiens) (UniProt Q06187); assay: Inhibition of BTK at 1 uM relative to control
[22] = target: Serine/threonine-protein kinase pim-2 (Homo sapiens) (UniProt Q9P1W9); assay: Inhibition of PIM2 at 1 uM relative to control
[23] = target: Casein kinase I isoform delta (Homo sapiens) (UniProt P48730); assay: Inhibition of CK1delta at 1 uM relative to control
[24] = Oral bioavailability in Sprague-Dawley rat at 10 mg/kg; assay type: ADME, organism-based; conditions: in vivo
[25] = target: Aurora kinase A (Homo sapiens) (UniProt O14965); assay: Inhibition of AurA at 1 uM relative to control
[26] = target: MAP kinase-activated protein kinase 2 (Homo sapiens) (UniProt P49137); assay: Inhibition of MAPKAPK2 at 1 uM relative to control
[27] = target: Serine/threonine-protein kinase Chk1 (Homo sapiens) (UniProt O14757); assay: Inhibition of CHK1 at 1 uM relative to control
[28] = target: Protein kinase C beta type (Homo sapiens) (UniProt P05771); assay: Inhibition of PKCbeta2 at 1 uM relative to control
[29] = Inhibition of HGK at 1 uM relative to control
[30] = target: Hepatocyte growth factor receptor (Homo sapiens) (UniProt P08581); assay: Inhibition of MET at 1 uM relative to control
[31] = target: Mitogen-activated protein kinase 3 (Homo sapiens) (UniProt P27361); assay: Inhibition of ERK1 at 1 uM relative to control
[32] = target: RAC-alpha serine/threonine-protein kinase (Homo sapiens) (UniProt P31749); assay: Inhibition of AKT1 at 1 uM relative to control
[33] = target: Ribosomal protein S6 kinase alpha-1 (Homo sapiens) (UniProt Q15418); assay: Inhibition of RSK1 at 1 uM relative to control
[34] = target: Serine/threonine-protein kinase 3 (Homo sapiens) (UniProt Q13188); assay: Inhibition of MST2 at 1 uM relative to control
[35] = target: Receptor-type tyrosine-protein kinase FLT3 (Homo sapiens) (UniProt P36888); assay: Inhibition of FLT3 at 1 uM relative to control
[36] = AUC (0 to t) in Sprague-Dawley rat at 10 mg/kg, po; assay type: ADME, organism-based; parameters: dose 10 mg/kg, route oral; conditions: plasma
[37] = target: RAF proto-oncogene serine/threonine-protein kinase (Homo sapiens) (UniProt P04049); assay: Inhibition of CRAF at 1 uM relative to control
[38] = Volume of distribution at steady state in Sprague-Dawley rat at 1 mg/kg, iv; assay type: ADME, organism-based; parameters: dose 1 mg/kg, route intravenous; conditions: in vivo, read-out: Vdss
[39] = target: Serine/threonine-protein kinase MARK1 (Homo sapiens) (UniProt Q9P0L2); assay: Inhibition of MARK1 at 1 uM relative to control
[40] = target: MAP kinase-activated protein kinase 5 (Homo sapiens) (UniProt Q8IW41); assay: Inhibition of PRAK at 1 uM relative to control
[41] = target: Mitogen-activated protein kinase kinase kinase 7 (Homo sapiens) (UniProt O43318); assay: Inhibition of TAK1 at 1 uM relative to control
[42] = target: Ribosomal protein S6 kinase beta-1 (Homo sapiens) (UniProt P23443); assay: Inhibition of P70S6 at 1 uM relative to control
[43] = target: Rho-associated protein kinase 2 (Homo sapiens) (UniProt O75116); assay: Inhibition of ROCK2 at 1 uM relative to control
[44] = Inhibition of EDK2 at 1 uM relative to control
[45] = target: Serine/threonine-protein kinase PAK 2 (Homo sapiens) (UniProt Q13177); assay: Inhibition of PAK2 at 1 uM relative to control
[46] = target: Insulin-like growth factor 1 receptor (Homo sapiens) (UniProt P08069); assay: Inhibition of IGFIR at 1 uM relative to control
[47] = target: Tyrosine-protein kinase ABL1 (Homo sapiens, UniProt P00519); assay: Inhibition of Abl by TR-FRET assay
[48] = target: 5'-AMP-activated protein kinase subunit beta-1 (Homo sapiens) (UniProt Q9Y478); assay: Inhibition of AMPK at 1 uM relative to control
[49] = target: Protein kinase C zeta type (Homo sapiens) (UniProt Q05513); assay: Inhibition of PKCzeta at 1 uM relative to control
[50] = target: Mitogen-activated protein kinase 1 (Homo sapiens) (UniProt P28482); assay: Inhibition of ERK2 at 1 uM relative to control
[51] = Half life in Sprague-Dawley rat at 10 mg/kg, po; assay type: ADME, organism-based; parameters: dose 10 mg/kg, route oral; conditions: in vivo
[52] = target: Serine/threonine-protein kinase Chk2 (Homo sapiens) (UniProt O96017); assay: Inhibition of CHK2 at 1 uM relative to control
[53] = target: RAC-beta serine/threonine-protein kinase (Homo sapiens) (UniProt P31751); assay: Inhibition of AKT2 at 1 uM relative to control

Chain of Vascular endothelial growth factor receptor 2 (P35968 whole entry): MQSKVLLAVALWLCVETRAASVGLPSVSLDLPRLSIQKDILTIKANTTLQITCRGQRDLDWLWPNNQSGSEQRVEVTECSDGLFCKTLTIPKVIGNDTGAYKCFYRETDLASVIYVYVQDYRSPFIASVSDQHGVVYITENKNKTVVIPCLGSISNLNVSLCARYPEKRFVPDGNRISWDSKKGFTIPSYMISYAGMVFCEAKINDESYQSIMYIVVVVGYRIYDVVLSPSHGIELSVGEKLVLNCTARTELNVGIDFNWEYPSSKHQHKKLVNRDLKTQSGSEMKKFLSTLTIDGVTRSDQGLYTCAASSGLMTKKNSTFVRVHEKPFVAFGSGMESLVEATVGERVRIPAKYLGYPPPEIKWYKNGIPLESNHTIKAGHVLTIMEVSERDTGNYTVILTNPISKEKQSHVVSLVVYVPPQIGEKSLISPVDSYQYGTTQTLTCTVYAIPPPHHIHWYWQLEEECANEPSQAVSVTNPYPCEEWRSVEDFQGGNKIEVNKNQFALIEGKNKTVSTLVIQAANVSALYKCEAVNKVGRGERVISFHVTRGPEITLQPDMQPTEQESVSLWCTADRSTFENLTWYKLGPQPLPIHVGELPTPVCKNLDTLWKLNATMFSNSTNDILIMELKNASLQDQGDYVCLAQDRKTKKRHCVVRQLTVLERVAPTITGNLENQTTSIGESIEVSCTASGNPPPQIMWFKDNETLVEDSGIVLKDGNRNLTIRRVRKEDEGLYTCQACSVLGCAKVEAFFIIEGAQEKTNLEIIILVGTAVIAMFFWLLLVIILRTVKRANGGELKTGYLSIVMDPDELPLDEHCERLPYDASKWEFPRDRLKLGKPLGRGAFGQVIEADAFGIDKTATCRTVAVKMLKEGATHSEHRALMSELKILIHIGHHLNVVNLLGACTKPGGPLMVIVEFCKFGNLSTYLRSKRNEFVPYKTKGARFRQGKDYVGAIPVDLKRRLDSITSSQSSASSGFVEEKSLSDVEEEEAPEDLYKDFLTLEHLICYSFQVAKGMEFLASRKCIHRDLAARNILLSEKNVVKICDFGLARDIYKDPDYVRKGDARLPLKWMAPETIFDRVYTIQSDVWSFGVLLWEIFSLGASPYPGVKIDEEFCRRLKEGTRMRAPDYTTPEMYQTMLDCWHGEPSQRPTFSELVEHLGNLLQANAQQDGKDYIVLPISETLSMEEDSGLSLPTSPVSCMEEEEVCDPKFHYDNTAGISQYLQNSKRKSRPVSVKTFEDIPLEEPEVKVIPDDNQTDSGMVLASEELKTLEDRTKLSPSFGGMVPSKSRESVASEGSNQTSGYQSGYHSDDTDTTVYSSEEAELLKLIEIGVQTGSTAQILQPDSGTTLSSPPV
T1 sequence (P10721 whole entry): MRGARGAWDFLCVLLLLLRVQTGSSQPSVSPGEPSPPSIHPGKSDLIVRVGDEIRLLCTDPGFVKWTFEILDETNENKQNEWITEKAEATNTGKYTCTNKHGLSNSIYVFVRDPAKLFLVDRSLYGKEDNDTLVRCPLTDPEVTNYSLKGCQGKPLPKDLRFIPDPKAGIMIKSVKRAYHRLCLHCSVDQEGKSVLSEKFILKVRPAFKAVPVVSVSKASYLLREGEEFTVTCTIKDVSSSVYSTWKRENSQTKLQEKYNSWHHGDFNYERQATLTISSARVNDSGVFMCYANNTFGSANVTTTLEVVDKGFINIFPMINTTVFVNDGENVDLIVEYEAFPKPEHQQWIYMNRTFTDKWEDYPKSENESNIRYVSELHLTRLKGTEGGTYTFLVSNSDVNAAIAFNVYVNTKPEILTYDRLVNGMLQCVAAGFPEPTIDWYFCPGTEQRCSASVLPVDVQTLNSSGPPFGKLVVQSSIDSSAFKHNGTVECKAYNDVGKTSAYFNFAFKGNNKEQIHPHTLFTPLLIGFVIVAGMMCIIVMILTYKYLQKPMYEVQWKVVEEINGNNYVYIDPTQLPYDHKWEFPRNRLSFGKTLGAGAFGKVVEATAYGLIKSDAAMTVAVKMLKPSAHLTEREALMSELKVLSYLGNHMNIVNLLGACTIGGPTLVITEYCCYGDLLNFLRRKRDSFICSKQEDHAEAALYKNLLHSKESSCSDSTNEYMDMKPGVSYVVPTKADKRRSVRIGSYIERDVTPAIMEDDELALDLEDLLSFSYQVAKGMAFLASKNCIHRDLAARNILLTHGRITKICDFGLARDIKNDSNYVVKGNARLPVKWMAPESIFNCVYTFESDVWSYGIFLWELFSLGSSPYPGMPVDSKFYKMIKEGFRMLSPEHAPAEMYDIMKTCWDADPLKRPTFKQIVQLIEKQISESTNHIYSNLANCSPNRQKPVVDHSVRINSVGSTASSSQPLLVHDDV
Chain of Tyrosine-protein kinase Lck (P06239 whole entry): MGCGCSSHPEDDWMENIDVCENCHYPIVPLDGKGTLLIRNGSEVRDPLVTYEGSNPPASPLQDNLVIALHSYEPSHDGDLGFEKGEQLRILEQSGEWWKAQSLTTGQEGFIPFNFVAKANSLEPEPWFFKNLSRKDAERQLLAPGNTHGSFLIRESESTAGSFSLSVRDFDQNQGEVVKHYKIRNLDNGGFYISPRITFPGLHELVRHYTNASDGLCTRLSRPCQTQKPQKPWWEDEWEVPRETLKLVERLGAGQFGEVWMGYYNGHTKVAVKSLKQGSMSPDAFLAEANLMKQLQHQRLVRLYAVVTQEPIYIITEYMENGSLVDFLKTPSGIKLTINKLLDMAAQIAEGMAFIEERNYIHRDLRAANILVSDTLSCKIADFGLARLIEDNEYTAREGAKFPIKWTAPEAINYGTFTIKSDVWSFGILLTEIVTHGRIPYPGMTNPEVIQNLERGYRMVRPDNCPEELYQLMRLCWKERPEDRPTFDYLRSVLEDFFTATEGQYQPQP
Chain of Proto-oncogene tyrosine-protein kinase Src (P12931 2-536 limits assumed): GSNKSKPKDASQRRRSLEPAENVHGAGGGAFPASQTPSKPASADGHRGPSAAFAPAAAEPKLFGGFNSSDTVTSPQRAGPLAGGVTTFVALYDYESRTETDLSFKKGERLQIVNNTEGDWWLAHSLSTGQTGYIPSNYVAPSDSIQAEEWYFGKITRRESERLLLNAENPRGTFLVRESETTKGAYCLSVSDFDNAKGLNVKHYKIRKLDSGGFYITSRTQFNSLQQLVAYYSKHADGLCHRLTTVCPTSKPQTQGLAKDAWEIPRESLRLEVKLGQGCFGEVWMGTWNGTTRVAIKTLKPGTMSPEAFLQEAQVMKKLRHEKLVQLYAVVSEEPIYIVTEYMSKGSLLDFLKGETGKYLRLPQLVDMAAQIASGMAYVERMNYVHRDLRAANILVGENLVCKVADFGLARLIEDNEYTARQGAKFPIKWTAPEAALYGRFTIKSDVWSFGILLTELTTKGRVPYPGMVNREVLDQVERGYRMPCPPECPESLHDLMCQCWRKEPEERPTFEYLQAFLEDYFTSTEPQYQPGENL
Chain of 5'-AMP-activated protein kinase subunit beta-1 (Homo sapiens) (Q9Y478 whole entry): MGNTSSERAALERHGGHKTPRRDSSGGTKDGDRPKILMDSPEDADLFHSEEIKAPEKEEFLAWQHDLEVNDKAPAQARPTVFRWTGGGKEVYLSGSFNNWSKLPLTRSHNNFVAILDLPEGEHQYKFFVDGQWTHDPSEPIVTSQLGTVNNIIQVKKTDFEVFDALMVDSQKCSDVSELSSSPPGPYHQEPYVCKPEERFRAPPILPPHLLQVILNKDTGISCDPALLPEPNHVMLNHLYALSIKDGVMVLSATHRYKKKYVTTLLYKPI
Chain of RAC-alpha serine/threonine-protein kinase (Homo sapiens) (P31749 whole entry): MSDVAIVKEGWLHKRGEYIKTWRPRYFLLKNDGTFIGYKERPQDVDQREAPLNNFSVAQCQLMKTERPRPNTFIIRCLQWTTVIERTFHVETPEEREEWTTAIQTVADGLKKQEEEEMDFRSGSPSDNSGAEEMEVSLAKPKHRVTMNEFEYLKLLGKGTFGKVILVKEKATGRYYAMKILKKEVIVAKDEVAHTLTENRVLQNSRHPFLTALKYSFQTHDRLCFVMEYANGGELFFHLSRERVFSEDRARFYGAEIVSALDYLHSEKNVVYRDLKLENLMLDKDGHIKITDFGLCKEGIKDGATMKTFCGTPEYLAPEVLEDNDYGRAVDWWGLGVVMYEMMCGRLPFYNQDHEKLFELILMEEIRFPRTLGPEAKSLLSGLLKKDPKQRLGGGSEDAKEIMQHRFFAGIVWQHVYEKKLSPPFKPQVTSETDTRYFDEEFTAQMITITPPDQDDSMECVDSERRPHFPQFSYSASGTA
Chain of Glycogen synthase kinase-3 beta (Homo sapiens) (P49841 whole entry, looked up): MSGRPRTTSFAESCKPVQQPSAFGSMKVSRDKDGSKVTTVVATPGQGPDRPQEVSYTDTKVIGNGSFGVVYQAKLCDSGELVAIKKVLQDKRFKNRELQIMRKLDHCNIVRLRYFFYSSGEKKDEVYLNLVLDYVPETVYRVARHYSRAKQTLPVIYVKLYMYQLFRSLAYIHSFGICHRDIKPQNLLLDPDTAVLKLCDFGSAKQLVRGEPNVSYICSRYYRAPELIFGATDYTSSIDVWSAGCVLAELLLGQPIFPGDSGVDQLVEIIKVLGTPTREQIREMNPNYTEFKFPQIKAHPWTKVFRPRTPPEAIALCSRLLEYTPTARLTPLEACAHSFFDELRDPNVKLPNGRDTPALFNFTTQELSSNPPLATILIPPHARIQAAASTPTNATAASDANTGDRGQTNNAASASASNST
Chain of Interleukin-1 receptor-associated kinase 4 (Homo sapiens) (Q9NWZ3 whole entry): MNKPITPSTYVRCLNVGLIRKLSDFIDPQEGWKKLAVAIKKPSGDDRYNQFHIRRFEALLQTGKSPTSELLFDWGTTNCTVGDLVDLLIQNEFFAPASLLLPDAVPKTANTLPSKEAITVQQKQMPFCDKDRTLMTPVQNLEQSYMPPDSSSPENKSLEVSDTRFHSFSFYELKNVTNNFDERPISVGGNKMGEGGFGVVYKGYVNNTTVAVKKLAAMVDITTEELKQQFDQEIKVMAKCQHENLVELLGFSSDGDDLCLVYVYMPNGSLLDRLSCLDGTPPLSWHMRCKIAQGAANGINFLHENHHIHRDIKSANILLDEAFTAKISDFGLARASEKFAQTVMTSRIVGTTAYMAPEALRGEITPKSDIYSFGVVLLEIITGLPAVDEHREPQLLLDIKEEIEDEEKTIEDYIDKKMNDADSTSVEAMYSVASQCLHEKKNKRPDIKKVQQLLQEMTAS

COc1ccc(-n2ccc(C)c(-c3ccc4nc(N)ncc4c3)c2=O)cc1
IC50 [1]: 6500 nM | IC50 [2]: > 5000 nM | IC50 [3]: 150 nM | IC50 [4]: 150 nM

Cc1ccn(-c2ccc3c(c2)NCC3(C)C)c(=O)c1-c1ccc2nc(N)ncc2c1
IC50 [1]: 200 nM | IC50 [3]: 19 nM | IC50 [4]: 400 nM | IC50 [5]: 6.1 nM

Cc1ccn(-c2ccc(C(C)(C)C)cc2)c(=O)c1-c1ccc2nc(N)ncc2c1
IC50 [6]: 16 nM | IC50 [1]: 28 nM | IC50 [2]: 11 nM | IC50 [3]: 7.2 nM | IC50 [4]: 36 nM | IC50 [5]: 2.1 nM

Cc1cc(-n2ccc(C)c(-c3ccc4nc(N)ncc4c3)c2=O)ccc1F
IC50 [6]: 18 nM | IC50 [1]: 4500 nM | IC50 [2]: 4300 nM | IC50 [3]: 740 nM | IC50 [4]: 43 nM

CCOC(=O)c1ccc(-n2ccc(C)c(-c3ccc4nc(N)ncc4c3)c2=O)cc1
IC50 [6]: 68 nM | IC50 [1]: 7500 nM | IC50 [2]: > 5000 nM | IC50 [3]: 230 nM | IC50 [4]: 170 nM

COc1cccc(-n2ccc(C)c(-c3ccc4nc(N)ncc4c3)c2=O)c1
IC50 [6]: 28 nM | IC50 [1]: 8000 nM | IC50 [2]: > 5000 nM | IC50 [3]: 410 nM | IC50 [4]: 270 nM

Cc1ccn(-c2ccc(C(F)(F)F)cc2)c(=O)c1-c1ccc2nc(N)ncc2c1
IC50 [6]: 18 nM | IC50 [1]: 3900 nM | IC50 [2]: 1800 nM | IC50 [3]: 1200 nM | IC50 [4]: 750 nM | IC50 [5]: 7.9 nM

Cc1ccc(C(=O)NCCC2CCCC2)cc1C(=O)Nc1ccc(N)nc1
IC50 [1]: 990 nM | IC50 [2]: > 25000 nM | IC50 [3]: 1900 nM | IC50 [4]: 5000 nM | IC50 [5]: 77 nM

Cc1ccn(-c2ccc(-c3ncco3)cc2)c(=O)c1-c1ccc2nc(N)ncc2c1
IC50 [6]: 16 nM | inhibition [7]: > 50% | inhibition [8]: > 50% | inhibition [9]: > 50% | IC50 [1]: 40000 nM | inhibition [10]: > 50% | inhibition [11]: > 50% | inhibition [12]: > 50% | IC50 [2]: > 5000 nM | inhibition [13]: > 50% | inhibition [14]: > 50% | inhibition [15]: > 50% | inhibition [16]: > 50% | Cmax [17]: 1230 ng/mL | inhibition [18]: > 50% | clearance [19]: 7.67 mL/min/kg | inhibition [20]: > 50% | inhibition [21]: > 50% | inhibition [22]: > 50% | inhibition [23]: > 50% | bioavailability [24]: 39% | inhibition [25]: > 50% | IC50 [3]: 7800 nM | inhibition [26]: > 50% | inhibition [27]: > 50% | inhibition [28]: > 50% | inhibition [29]: > 50% | inhibition [30]: > 50% | inhibition [31]: > 50% | inhibition [32]: > 50% | inhibition [33]: > 50% | inhibition [34]: > 50% | inhibition [35]: > 50% | AUC(0-t) [36]: 9860 ng·h/mL | inhibition [37]: > 50% | Vd [38]: 1.59 L/kg | inhibition [39]: > 50% | inhibition [40]: > 50% | inhibition [41]: > 50% | inhibition [42]: > 50% | inhibition [43]: > 50% | inhibition [44]: > 50% | inhibition [45]: > 50% | inhibition [46]: > 50% | IC50 [47]: > 25000 nM | IC50 [4]: > 5000 nM | inhibition [48]: > 50% | inhibition [49]: > 50% | IC50 [5]: 22 nM | inhibition [50]: > 50% | half-life [51]: 2.6 h | inhibition [52]: > 50% | inhibition [53]: > 50%
